The experiment in a line: Anti-inflammatory activity in LPS-induced mouse N9 cells assessed as reduction in IL-1beta production pretreated for 18 hrs followed LPS stimulation and measured after 48 hrs by ELISA. Format: functional, cell-based. On the technique in general: ELISA stands for enzyme-linked immunosorbent assay.

The term IC50 denotes the midpoint of a concentration-inhibition curve.

With `Cc1cc(-c2ccccc2)nnc1C(=O)N1CCN(c2ncccn2)CC1`, the 50% inhibitory concentration (IC50) was 3.4 nM.

These data come from ChEMBL document CHEMBL4196050, “Design, synthesis, and biological evaluation of compounds with a new scaffold as anti-neuroinflammatory agents for the treatment of Alzheimer's disease” (Eur J Med Chem, 2018).
